Results on four compounds are retold here after patent US20120039816A1, “USE OF 7-CHLORO-N,N,5-TRIMETHYL-4-OXO-3-PHENYL-3,5-DIHYDRO-4H-PYRIDAZINO[4,5-B] INDOLE-1-ACETAMIDE AS A BIOMARKER OF PERIPHERAL BENZODIAZEPINE RECEPTOR LEVELS” (SANOFI-AVENTIS, priority 2008, published 2012).

Data set [1] addresses T1, PBR (peripheral benzodiazepine receptor) (Rattus norvegicus, UniProt P16257).
T1 construct: lesioned striatum of AMPA-injected rats (the region in which PBR expression is induced); from tissue; host or cells: brain (AMPA-lesioned and intact striatum) of Wistar rats, imaged in vivo or cut into 20 µm sections
Description: MicroPET imaging in AMPA-lesioned rat model of neuroinflammation. It counts as in vivo, Wistar rats. As to the method: Wistar rats (average body weight 300 g, centre d'Élevage René Janvier, France) were kept in thermoregulated, humidity controlled facilities under a 12 h/12 h light/dark cycle (light on between 7 h AM and 7 h PM) and were allowed free access to food and water. […] AMPA (0.5 μL) was injected into the right striatum (Bregma+0.7 mm, from sagittal suture: 2.7 mm, depth from brain surface: 5.5 mm).
(§1) MicroPET imaging was performed 7 days post-AMPA injection in rats and in 11-12 month old transgenic mice. In both mice and rats, anaesthesia was induced by isoflurane 5%, and thereafter maintained by 2-2.5% of isoflurane in a mixture of 70%/30% […]. […] Mice were placed on a bed equipped with an anaesthetic mask allowing heating of the air flow and the rectal temperature was monitored using the Homeothermic Blanket Control Unit.
(§2) In rats, radiolabelled compounds and unlabelled ligands were injected in the caudal vein with the use of 24 gauge catheter. Radiolabelled compounds were injected concomitantly at the start of the PET acquisition and unlabelled compounds were injected 20 min after injection of radiotracers. PET data were acquired for 80 min. In mice, radiolabelled compounds were injected in the caudal vein using 28 gauge needles immediately before the PET scan initiation. PET data were acquired for 60 min.
(§3) PET image analysis was performed using ASIPro VM™ (CTI Concorde Microsystems' Analysis Tools and System Setup/Diagnostics Tool) and Brainvisa/Anatomist (http://brainvisa.info/).

Data set [2] deals with PBR. Description: PET imaging in quinolinic acid primate model of neuroinflammation. In kind it is in vivo, Cynomolgus macaques (Macaca fascicularis). The protocol: Cynomolgus macaques (Macaca fascicularis) weighing 4-5 kg were housed in thermoregulated, humidity controlled facilities under a 12 h/12 h light/dark cycle (light on between 7 h a.m. and 7 h p.m.) and were allowed free access to food and water. Neuroinflammation was induced by local sterotaxic injections of quinolinic acid (quinolinic acid, Sigma, St. Louis, Mo.; dissolved in 0.1 M PBS, pH 7.2) into the primate striatum (1 injection site into caudate and 2 injection sites into the putamen) during two different surgical interventions where quinolinic acid was injected into one hemisphere on day 1 and the second hemisphere 2 weeks or 7 months later (FIGS. 8 and 9). During each surgical session the animals received 60 nmol of quinolinic acid distributed over three different striatal sites, one 5 μL site in the caudate and two 10 μL sites in the putamen using a 10 μL-Hamilton syringe attached to a 26-gauge needle. […] The excitotoxin was injected at a rate of 0.1 μL/min and the injection syringe left in place for an additional 5 min to avoid backflow of the toxin. Throughout the surgery, the primate temperature was maintained normothermic (rectal temperature, 36° C.±0.6° C., mean±SD). After removing the needle, the skin was sutured and the animals were allowed to recover from anesthesia and returned to their cages when fully awake.
Imaging sessions were performed before and at various times after quinolinic acid injection (24 hrs, 48 hrs, 9 days, 16 days and 7 months post lesion).
One hour before PET imaging, animals were anaesthetized by intramuscular injection of a ketamine/xylazine mixture (15 mg/kg/1.5 mg/kg) and intubated. Catheters were then placed in a saphenous vein for radiotracer injection and in a femoral artery for blood sampling. Animals were maintained anaesthetized by an intravenous injection of propofol (Diprivan® 1%; 0.05 mg·kg^−1·min^−1).
To ensure correct positioning of the animal in the apparatus, the animal's head was secured in a home-made stereotactic frame. PET scans were performed using the high-resolution Focus micro-PET (CTI-Siemens, Knoxville, Tenn.), which acquires 95 contiguous planes simultaneously. For attenuation correction, a transmission scan was first performed using a ^68Ge rotating rod source.
as §3

In data set [3] the target is PBR (Rattus norvegicus, UniProt P16257). The note with it: excess unlabelled PK11195 (23 μM) or A (22 μM), FIG. 5.
Data set [4] concerns the target T2, PBR (Homo sapiens, UniProt P30536). The note with it: in vitro and in vivo; cited from earlier work.
The nature of data set [5]: Metabolite analysis in rat blood and brain. It counts as in vivo, Wistar rats. As to the method: A blood sample was collected and plasma isolated by centrifugation (5 min, 3000 rpm). Plasma proteins were precipitated from 400 μL of serum by addition of 400 μL of acetonitrile. After centrifugation (5 min, 3000 rpm), the supernatant was injected onto the HPLC column. Rat brains were removed and hemispheres were separated. Homogenisation by sonication was performed in 1 mL of acetonitrile per hemisphere. After a rapid centrifugation, the supernatant was separated from the pellet and concentrated under reduced pressure before injection onto the HPLC (see radiochemistry section for HPLC conditions).

For data set [6], the target named is T3, PBR (Mus musculus, UniProt P50637).
T3 construct: from tissue; host or cells: brain of PS1 and APPxPS1 transgenic mice, imaged in vivo at 11-12 months or cut into sections at 20-23 months
Put plainly: MicroPET imaging in APP×PS1 and PS1 transgenic mice. In kind it is in vivo. The note with it: for uptake in APP×PS1 vs wild type PS1: whole brain, 11-12 month old mice, PET.
Source text: Generation and characterization of single PS1M146L (PS1) and double APP751SL×PS1M146L (APP×PS1) transgenic mice were achieved, as described previously (Blanchard, V. et al. (2003) Exp. Neurol. 184: 247-263). In these animals APP is expressed at a high level in all cortical neurons under the control of the Thy-1 promoter. Human PS1 with the M146L mutation is expressed under the control of the HMG-CoA reductase promoter. […] Both single PS1 and double APP×PS1 mice, provided by Sanofi-Aventis, were used for PET imaging at the age of 11-12 months and autoradiography at 20-23 months.
as §1, §2, §3

For data set [7], the target named is T2, PBR. To be noted: PET ligand; cited from earlier work.
Setting [8] is: systemic, large excess (1 mg/kg), 30 min after radiotracer injection (FIG. 9).

T2 sequence (P30536 whole entry, species assumed): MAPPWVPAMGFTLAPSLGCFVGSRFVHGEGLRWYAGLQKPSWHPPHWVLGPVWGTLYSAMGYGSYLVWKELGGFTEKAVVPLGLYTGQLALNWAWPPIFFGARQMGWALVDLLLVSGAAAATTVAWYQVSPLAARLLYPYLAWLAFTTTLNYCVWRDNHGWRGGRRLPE

Regarding `CCC(C)N(C)C(=O)c1cc2ccccc2c(-c2ccccc2Cl)n1` (stereo not drawn) [PK11195], the “effect of unlabelled compound on [^11C]-A binding in the controlateral side” value in data set [1] (1 mg/kg i.v., 20 min post [^11C]-A injection) was “small increase”. Also, in data set [1] (1 mg/kg i.v., 20 min post [^11C]-A injection (FIG. 3, 4)), the “effect of unlabelled compound on brain uptake of [^11C]-A in lesioned striatum” value is on record as “significantly reduced”. Besides, in the data set on PBR [2] (setting [8]), the “effect of excess unlabelled compound on [^11C]-A binding in lesioned striatum” value was “specific displacement” and the “effect of excess unlabelled compound on [^11C]-A binding in non-lesioned control brain regions” value is “no noticeable changes”. Besides, the “effect of excess unlabelled ligand on ipsilateral to contralateral ratio of [^11C]-A binding” value at PBR [3] was “abolished”.

As to `CN(C)C(=O)Cc1nn(-c2ccccc2)c(=O)c2c1c1ccc(Cl)cc1n2C` [A, 7-chloro-N,N,5-trimethyl-4-oxo-3-phenyl-3,5-dihydro-4H-pyridazino[4,5-b]indole-1-acetamide], the “affinity for the PBR” value at PBR [4] is listed as “high affinity”.

On to `CN(C)C(=O)Cc1nn(-c2ccccc2)c(=O)c2c1c1ccc(Cl)cc1n2[11CH3]` [[^11C]-A, 7-Chloro-N,N-dimethyl-5-[^11C]methyl-4-oxo-3-phenyl-3,5-dihydro-4H-pyridazino[4,5-b]indole-1-acetamide], for which the “metabolites present in brain” value in data set [5] (rats, 10, 20 and 30 min after [^11C]-A injection (FIG. 10)) was “essentially detected the parent compound only”. For the same compound, the “metabolites present in blood and plasma” value in data set [5] (rats, 10 and 20 min after [^11C]-A injection (FIG. 10)) was “essentially detected the parent compound only”. The “uptake in whole brain (cerebellum excluded) compared to [^11C]PK11195” value on PBR [6] (APP×PS1 and wild type PS1 transgenic mice, 11-12 months (FIG. 6)) is reported as “higher”. In addition, on PBR [6], the “uptake in APP×PS1 vs wild type PS1” value is “not significantly higher”. In addition, the “uptake in lesioned striatum” value with PBR [2] (7 months after excitotoxin injection, right striatum) is listed as “returned to baseline levels”. For the same compound, the “uptake in lesioned right striatum compared to contralateral non-injected striatum and control brain regions (cerebellum, prefrontal cortex)” value with PBR [2] (24 hrs after excitotoxin injection (FIG. 8)) was “significantly higher”. In addition, the “increase in uptake in lesioned striatum” value with PBR [2] (48 hrs after excitotoxin injection, left hemisphere) is “could still be visualized”. Besides, in the data set with PBR [2] (early phase of neuroinflammation (FIG. 9)), the “time window of increased uptake after lesion” value is listed as “can be visualised from 24 hrs up to 16 days”. Also, the “uptake in contralateral non-injected striatum” value with PBR [2] (same level as brain regions of a non-injected primate (FIG. 8)) was “remained stable”.

As for `CC[C@@H](C)N([11CH3])C(=O)c1cc2ccccc2c(-c2ccccc2Cl)n1` [[^11C]PK11195, (R)—N—[^11C]Methyl-N-(1-methylpropyl)-1-(2-chlorophenyl)isoquinoline-3-carboxamide], in data set [1] (AMPA-injected rats, PET), the R1 is recorded as 1.10±0.05 and the “binding potential (BP)” value amounted to 0.66±0.15. Moreover, the “uptake in APP×PS1 vs wild type PS1” value at PBR [6] is “not significantly higher”. Also, at PBR [7], the brain uptake result was “relatively low brain uptake”, the non-specific binding result is “high non-specific binding” and the “signal to noise ratio” value is “poor signal to noise ratio”.
